Data set [1] deals with S. aureus. The data set is described as follows: Antibacterial activity of anodized disk impregnated with benzalkonium chloride, deposited 5 min on agar plate lawn. The format is cell-based. The note with it: anodized disk soaked 10 min, FIG. 4. How it is done: Anodized and non-anodized aluminum disks were compared for incorporation/storage and recovery/diffusion of a chemical antibacterial compound. Briefly, anodized and non-anodized disks were prepared as described hereinbefore. The disks were then impregnated or not with benzalkonium chloride (an antibacterial) by soaking 10 min at room temperature and rinsed several times with water.
The disks were then tested for diffusion of the antimicrobial benzalkonium by measuring their respective antibacterial activity when deposited for 5 min on an agar plate lawn of S. aureus. […] This confirms incorporation and subsequent release of the antibacterial chemical from the anodized porous surface layer.

In data set [2] the test system is S. aureus. Description: Long term conservation: antibacterial activity of impregnated anodized aluminum disks after storage. It is filed as cell-based. The note with it: disks impregnated 4 years ago, 2.12% w/v; deposition 5 min on agar plate lawn. The procedure: An experiment was designed to evaluate the presence and integrity of samples stored in the anodized metallic support.
The antimicrobial activity was measured by diffusion of the antimicrobial benzalkonium following deposition for 5 min on an agar plate lawn of S. aureus (results not shown).

Take benzalkonium chloride: the “Inhibition of bacterial growth by impregnated anodized disk” value in the data set with S. aureus [1] is listed as “successfully inhibited bacterial growth”. Besides, the “Antibacterial activity after storage in anodized aluminum disks” value in the data set on S. aureus [2] was “still possible to measure antibacterial activity”.

The record behind these values is patent US20190197375A1, “TRACEABLE METALLIC PRODUCTS AND METALLIC SUPPORT FOR NANOSTORAGE” (9163-0384 QUEBÉC INC., priority 2013, published 2019).
